The results in this text go back to PubChem BioAssay AID1645848.

The structures appear in SMILES notation. Values after ≈ are worked out from the molar mass of the structure shown. Bounds are passed on as bounds.

The conditions of this data set: buffer; pH 7.4; 6.0 h; 150.0 µM.
Broadly, the kinetic solubility is solubility judged after dilution from a stock solution rather than from solid. `CNS(=O)(=O)c1cc(-c2nn3c(C)nnc3c3ccccc23)ccc1C` displayed a solubility (kinetic) of 4.84 µg/mL (≈ 13.2 µM).
`CCN1C(=O)c2ccccc2[S@](=O)c2ccc(C(=O)NCc3ccc(F)cc3)cc21` returned a solubility (kinetic) of 18.1 µg/mL (≈ 42.9 µM).
Then `Cc1nn(CCc2nc(-c3ccccc3F)cs2)c2[nH]c(=O)cc(C(F)(F)F)c12`, with under 1 µg/mL; and `Cc1ccc(-c2cc(C(=O)Nc3ccc(S(N)(=O)=O)cc3)c3cccc(C)c3n2)cc1C`, with under 1 µg/mL; and `COC(=O)[C@H](NC(=O)c1cc(-c2ccccc2)nc2ccccc12)c1ccccc1`, with under 1 µg/mL.
As for `CCc1cccc(NS(=O)(=O)c2ccc3c(c2)CC(C)N3C(=O)C2CC2)c1` (centres undefined), the solubility (kinetic) was under 1 µg/mL.
`COc1ccc(C(=O)Nc2ccc3c(c2)N(C2CCCC2)C(=O)c2ccccc2S3)cc1OC`: the kinetic solubility was under 1 µg/mL.
The compound `Nc1nc2c(s1)C(c1cccc(Cl)c1Cl)CC(=O)N2` (centres undefined) displayed a solubility (kinetic) of under 1 µg/mL.
To `COc1ncccc1-c1cc2[nH]ccc2c(C(=O)NCc2c(C)cc(C)[nH]c2=O)n1` belongs 5.75 µg/mL (≈ 14.3 µM); to `O=C1Nc2ccccc2C12CC2c1cc(Cl)c(O)c(Cl)c1` (centres undefined), under 1 µg/mL; to `O=C(Nc1ccc(F)cc1F)c1cc(-c2ccc[nH]2)n[nH]1`, over 29 µg/mL.
To `CN1CCCC(CC2c3ccccc3Sc3ccccc32)C1.Cl` (centres undefined) belongs over 46 µg/mL; to `NC(=O)C(=O)N/N=C/c1ccc([N+](=O)[O-])o1`, over 33 µg/mL; to `Fc1cc(Nc2nc(-c3ccncc3)nc3ccccc23)ccc1-c1cccc(OC(F)(F)F)c1`, under 1 µg/mL.
In turn, `C[C@@H]1CN(CC(=O)N2CC(C)(C)c3ncc(Cc4ccc(F)cc4)cc32)[C@@H](CN2CCOC[C@H]2C)CN1` registered a solubility (kinetic) of over 75 µg/mL.
Then `COc1cccc(Cn2c(=O)n(-c3cccc(Cl)c3C)c(=O)c3c4c(sc32)CN(C(C)=O)CC4)c1`, with under 1 µg/mL; and `Cc1ccccc1C(=O)N1CCc2cc(-c3cccc(NC(=O)Cc4ccc5c(c4)OCO5)c3)ccc21`, with under 1 µg/mL.
Compound `COC[C@@H]1CN(C(=O)c2nn(C)c3ccccc23)C[C@H]1c1nc(C)no1` had a solubility (kinetic) of over 100 µg/mL.
Then `COc1c(NS(=O)(=O)c2ccc(C)cc2)cccc1C(=O)Nc1nc(-c2ccccc2)cs1`, with under 1 µg/mL; and `COc1ccc(NC(=O)c2[nH]c(C)c(C(C)=O)c2C)cc1S(=O)(=O)N1CCCCC1`, with 34.2 µg/mL (≈ 79 µM).
Then `Cn1ccc2cc(-c3csc(N4CCC(C(N)=O)CC4)n3)ccc21`, with 32.9 µg/mL (≈ 96.7 µM).
Take `CCc1ccc(C(=O)Nc2cc(CN3CCN(C)CC3)cc(C(F)(F)F)c2)cc1C#Cc1cnc2ccnn2c1`: the kinetic solubility is under 1 µg/mL.
Then `CCN(CC)S(=O)(=O)c1ccc(N2CCCC2)c(NS(=O)(=O)c2ccccc2)c1`, with under 1 µg/mL; and `O=S(=O)(Nc1ccc(C2CCNCC2)cc1)c1ccc(NCc2cccc(Cl)c2O)cc1`, with 47.2 µg/mL (≈ 100 µM).
`Cc1cc(NS(=O)(=O)c2ccc(C(=O)NCc3ccc(Cl)c(Cl)c3)cc2)no1` returned a solubility (kinetic) of over 65 µg/mL.
For the compound `CCNC(=O)c1noc(-c2cc(C(C)C)c(O)cc2O)c1-c1ccc(CN2CCOCC2)cc1`, the solubility (kinetic) is over 69 µg/mL.
Then `CCCCCNc1oc(-c2cccc3ccccc23)nc1C#N`, with under 1 µg/mL; and `Cc1c(-c2nsc(NC(=O)c3cccc(Cl)c3)n2)nnn1-c1ccccc1C(F)(F)F`, with under 1 µg/mL; and `CN1CC(CNC(=O)OCc2ccccc2)C[C@H]2c3cccc4c3c(cn4C)CC21` (some centres undefined), with 38.4 µg/mL (≈ 95.2 µM).
To `N#Cc1ccc(C(=O)Nc2ccc(Cl)c(-c3nc4cc(Cl)ccc4o3)c2)c(F)c1` belongs under 1 µg/mL; to `Cc1nc(-c2ccccc2)cc([C@H]2CN3CC[C@H]2C[C@@H]3CNC2CCOCC2)n1`, over 58 µg/mL; to `Cn1c2ccccc2c(=O)c2c(=O)n(-c3ccccc3)c(C3CCCCC3)nc21`, under 1 µg/mL.
Turning to `Cc1cc(SCC(=O)c2ccccc2)n2ncc(-c3ccccc3)c2n1`, the solubility (kinetic) is under 1 µg/mL.
The compound `COc1cccc(NC(=O)c2cc(-c3ccc(C)c(C)c3)nc3ccccc23)c1` showed a kinetic solubility of under 1 µg/mL.
